How the values were obtained:
Test in all cases: relative viability vs DMSO control (72 h) (fraction); higher = more viable cells
SW872 = system: SW872
Procedure, shortened: (§1)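 Sarcoma cell lines went into 384-well plates at densities chosen to reach 80–90% confluence. After 24 h, each well received 2.5 µl of serially diluted compound, with source plates running from 10 mM to 0.0002 mM, and the plates were kept 72 h at 37 °C, 5% CO2, alongside 0.1% DMSO vehicle and a 5 µM positive control. Relative viability was derived from ATPLite readings as percent growth and averaged over up to triplicate wells. The data were then rescaled so that 1 stands for full and 0 for none.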

RD = system: RD
Procedure, shortened: as §1

A204 = system: A204
Procedure, shortened: as §1

VA-ES-BJ = system: VA-ES-BJ
Procedure, shortened: as §1

SYO-1 = system: SYO-1
Procedure, shortened: as §1

HS729 = system: HS729
Procedure, shortened: as §1

KHOS-NP = system: KHOS-NP
Procedure, shortened: as §1

G401 = system: G401
Procedure, shortened: as §1

SK-ES-1 = system: SK-ES-1
Procedure, shortened: as §1

SK-LMS-1 = system: SK-LMS-1
Procedure, shortened: as §1

MES-SA = system: MES-SA
Procedure, shortened: as §1

SW684 = system: SW684
Procedure, shortened: as §1

Cc1c2oc3c(C)ccc(C(=O)N[C@@H]4C(=O)N[C@H](C(C)C)C(=O)N5CCC[C@H]5C(=O)N(C)CC(=O)N(C)[C@@H](C(C)C)C(=O)O[C@@H]4C)c3nc-2c(C(=O)N[C@@H]2C(=O)N[C@H](C(C)C)C(=O)N3CCC[C@H]3C(=O)N(C)CC(=O)N(C)[C@@H](C(C)C)C(=O)O[C@@H]2C)c(N)c1=O [Dactinomycin]
Details	relative viability
A204, 0.00017 µM	1.02
A204, 0.00051 µM	0.99
A204, 0.00152 µM	0.641
A204, 0.00457 µM	0.393
A204, 0.01372 µM	0.277
A204, 0.04115 µM	0.234
A204, 0.1235 µM	0.193
A204, 0.3704 µM	0.201
A204, 1.111 µM	0.169
A204, 3.333 µM	0.161
A204, 10 µM	0.168
G401, 0.00017 µM	0.948
G401, 0.00051 µM	0.877
G401, 0.00152 µM	0.652
G401, 0.00457 µM	0.441
G401, 0.01372 µM	0.279
G401, 0.04115 µM	0.211
G401, 0.1235 µM	0.155
G401, 0.3704 µM	0.118
G401, 1.111 µM	0.087
G401, 3.333 µM	0.0667
G401, 10 µM	0.0642
HS729, 0.00017 µM	0.912
HS729, 0.00051 µM	0.937
HS729, 0.00152 µM	0.884
HS729, 0.00457 µM	0.8961
HS729, 0.01372 µM	0.711
HS729, 0.04115 µM	0.128
HS729, 0.1235 µM	0.166
HS729, 0.3704 µM	0.119
HS729, 1.111 µM	0.108
HS729, 3.333 µM	0.113
HS729, 10 µM	0.132
KHOS-NP, 0.00017 µM	1.06
KHOS-NP, 0.00051 µM	1.07
KHOS-NP, 0.00152 µM	1.08
KHOS-NP, 0.00457 µM	1.04
KHOS-NP, 0.01372 µM	0.63
KHOS-NP, 0.04115 µM	0.24
KHOS-NP, 0.1235 µM	0.0945
KHOS-NP, 0.3704 µM	0.0744
KHOS-NP, 1.111 µM	0.0665
KHOS-NP, 3.333 µM	0.0513
KHOS-NP, 10 µM	0.0582
MES-SA, 0.00017 µM	0.9129
MES-SA, 0.00051 µM	0.835
MES-SA, 0.00152 µM	0.354
MES-SA, 0.00457 µM	0.321
MES-SA, 0.01372 µM	0.265
MES-SA, 0.04115 µM	0.0423
MES-SA, 0.1235 µM	0.0397
MES-SA, 0.3704 µM	0.0566
MES-SA, 1.111 µM	0.0464
MES-SA, 3.333 µM	0.0357
MES-SA, 10 µM	0.0424
RD, 0.00017 µM	1.09
RD, 0.00051 µM	1.12
RD, 0.00152 µM	1.071
RD, 0.00457 µM	0.811
RD, 0.01372 µM	0.64
RD, 0.04115 µM	0.21
RD, 0.1235 µM	0.0929
RD, 0.3704 µM	0.108
RD, 1.111 µM	0.0875
RD, 3.333 µM	0.0715
RD, 10 µM	0.0653
SK-ES-1, 0.00017 µM	1.03
SK-ES-1, 0.00051 µM	0.976
SK-ES-1, 0.00152 µM	0.694
SK-ES-1, 0.00457 µM	0.423
SK-ES-1, 0.01372 µM	0.251
SK-ES-1, 0.04115 µM	0.00443
SK-ES-1, 0.1235 µM	-0.00147
SK-ES-1, 0.3704 µM	-0.0034
SK-ES-1, 1.111 µM	-0.0043
SK-ES-1, 3.333 µM	-0.00447
SK-ES-1, 10 µM	0.0007
SK-LMS-1, 0.00017 µM	1
SK-LMS-1, 0.00051 µM	1.02
SK-LMS-1, 0.00152 µM	0.994
SK-LMS-1, 0.00457 µM	0.86
SK-LMS-1, 0.01372 µM	0.664
SK-LMS-1, 0.04115 µM	0.364
SK-LMS-1, 0.1235 µM	0.292
SK-LMS-1, 0.3704 µM	0.27
SK-LMS-1, 1.111 µM	0.287
SK-LMS-1, 3.333 µM	0.288
SK-LMS-1, 10 µM	0.3
SW684, 0.00017 µM	1.13
SW684, 0.00051 µM	1.16
SW684, 0.00152 µM	1.09
SW684, 0.00457 µM	0.992
SW684, 0.01372 µM	0.835
SW684, 0.04115 µM	0.687
SW684, 0.1235 µM	0.763
SW684, 0.3704 µM	0.775
SW684, 1.111 µM	0.795
SW684, 3.333 µM	0.816
SW684, 10 µM	0.766
SW872, 0.00017 µM	0.96
SW872, 0.00051 µM	0.975
SW872, 0.00152 µM	0.992
SW872, 0.00457 µM	0.943
SW872, 0.01372 µM	0.765
SW872, 0.04115 µM	0.442
SW872, 0.1235 µM	0.171
SW872, 0.3704 µM	0.218
SW872, 1.111 µM	0.189
SW872, 3.333 µM	0.187
SW872, 10 µM	0.199
SYO-1, 0.00017 µM	0.883
SYO-1, 0.00051 µM	0.888
SYO-1, 0.00152 µM	0.606
SYO-1, 0.00457 µM	0.327
SYO-1, 0.01372 µM	0.259
SYO-1, 0.04115 µM	0.249
SYO-1, 0.1235 µM	0.239
SYO-1, 0.3704 µM	0.29
SYO-1, 1.111 µM	0.292
SYO-1, 3.333 µM	0.298
SYO-1, 10 µM	0.28
VA-ES-BJ, 0.00017 µM	1.01
VA-ES-BJ, 0.00051 µM	0.994
VA-ES-BJ, 0.00152 µM	0.94
VA-ES-BJ, 0.00457 µM	0.733
VA-ES-BJ, 0.01372 µM	0.457
VA-ES-BJ, 0.04115 µM	0.303
VA-ES-BJ, 0.1235 µM	0.151
VA-ES-BJ, 0.3704 µM	0.158
VA-ES-BJ, 1.111 µM	0.148
VA-ES-BJ, 3.333 µM	0.15
VA-ES-BJ, 10 µM	0.146

From the supplement of paper PMC10883282
